Results: patent US8329693B2, “Method for the prevention of thromboembolic disorders” (Orion Corporation, priority 2004, dated 2012)
Entries after “also recorded” stand apart in the source; their conditions may differ.

How the values were obtained:
Format in all cases: in vivo
[1] = tested on: Dahl salt-sensitive rats on high salt diet; experiment: Effects on mortality in salt sensitive rat model (Experiment 1)
Source text: Effect of levosimendan on early stage mortality of Dahl salt-sensitive rats was studied. Dahl salt-sensitive rats on high salt diet develop hypertension and increased mortality. In the early stages of hypertension the incidence of death is almost entirely due to stroke and sudden death. See Qu, P. et al., Hypertens. Res., 2000; 23:613-623.
6-week-old male Dahl salt-sensitive rats (SS/JrHsd) received the following diet and drug regimens for 7 weeks: 1) Dahl SS controls on high salt diet, 2) Dahl SS rats on high salt diet+high-dose levosimendan (10 mg/l of levosimendan in drinking water), 3) Dahl SS rats on high salt diet+low-dose levosimendan (1 mg/l of levosimendan in drinking water) and 4) Dahl SS controls on low salt diet. High salt diet was produced by adding NaCl to commercial low salt diet.
Only 38% (9/24) of rats on high salt diet survived the 7-week follow up period.

[2] = tested on: Dahl SS rats on high-salt diet; experiment: Mortality in Dahl salt-sensitive rat stroke model (Experiment 2); settings: High-Salt diet + Levosimendan 1 mg/kg/day (2 mg/l in drinking water), 7 weeks, n=20; vehicle group 70%
Procedure: Effect of levosimendan on the incidence of cerebral strokes in Dahl salt-sensitive rat stroke model was studied using Magnetic Resonance Imaging (MRI) and behavioural tests (Neuroscore and Functional Observational Battery (FOB)).
(§1) Dahl SS rats were divided into three treatment groups: High-Salt diet+vehicle (n=20), High-Salt diet+Levosimendan 1 mg/kg/day (n=20), and Normal-Salt diet control (n=4). High salt diet contained 7% of NaCl in commercial low salt diet. Feeding with the high-salt diet was started at the age of 6 weeks and continued 7 weeks until the end of the study. Levosimendan was administered via drinking water (2 mg/l of levosimendan in drinking water). The administration was started at the same time as the high-salt diet and continued until the end of the study. The consumption of drinking water and food as well as the body weight and general health of the animals were monitored. MRI was performed once-a-week during the weeks 2-8. FOB and 7-point Neuroscore testing were performed once-a-week during the weeks 1-3 and twice-a-week during weeks the 4-8.

[3] = tested on: Dahl SS rats on high-salt diet; experiment: Ex vivo MRI of post-mortem brain, Dahl salt-sensitive rat stroke model
Procedure: as §1
For ex-vivo imaging post-mortem brain was removed from the skull and immersed into 4% formalin for 48 h and thereafter stored in 0.1 M PBS. The brain was embedded in perfluoropolyether and MRI was performed in 9.4 T magnet (Oxford) interfaced to a SMIS-console. The interpretation of hyperintensity and signal void areas follows that presented for in vivo studies. In ex vivo studies only mature lesions with significant oedema and destructed tissue structure can be detected. Initial T2 contrast, which may be detectable in vivo, may not be visible in ex vivo studies. The findings in ex vivo studies support the idea that most of the ischemic lesions were associated with hemorrhage. […] Abbreviations: LS, levosimendan.

[4] = tested on: Dahl SS rats on high-salt diet; experiment: Functional observational battery (FOB), Dahl salt-sensitive rat stroke model; settings: weeks 1-8, levosimendan 1 mg/kg/day
Procedure: as §1
Functional observational battery (FOB) and Neuroscore testing were performed once-a-week during weeks 1-3 and twice-a-week during weeks 4-8.
All rats were observed using standardized procedures. The procedures included observation of rats in the home cage, while moving in open arena and through manipulative tests. The measures included:
(1) Home-Cage Measurements:
Body position, Respiration, Vocalization and Palpebral closure.
(2) Hand-Held Observations: […]

[5] = tested on: salt sensitive rat model; experiment: Stroke in salt sensitive rat model (summary statements); settings: preventative treatment

`CC1CC(=O)NN=C1c1ccc(NN=C(C#N)C#N)cc1` (single isomer, unassigned; (-)) [levosimendan, (−)-enantiomer of [[4-(1,4,5,6-tetrahydro-4-methyl-6-oxo-3-pyridazinyl)phenyl]hydrazono]propanedinitrile] was tested. Which “early stage mortality of salt-sensitive rats” value ([1]; 7 weeks, levosimendan in drinking water) did it give?
Its value is “markedly reduced”.

And the “rats that died during the 7-week follow up period” value ([1]; high-dose levosimendan, 10 mg/l in drinking water)?
The value was “three out of 12”.

What about the “rats that died during the 7-week follow up period” value ([1]; low-dose levosimendan, 1 mg/l in drinking water, n=12) of the same molecule?
The value was “None”.

And the “mortality during the study” value [2]?
The value was 5%.

What about the “Incidence of T2 changes, class 0” value ([3]; class 0, levosimendan 1 mg/kg/day) of the same molecule?
Its value is 80%.

What about the “Incidence of T2 changes, class 1-50” value ([3]; class 1-50, levosimendan 1 mg/kg/day) of the same molecule?
The value was 20%.

What about the “Incidence of T2 changes, class 51-100” value ([3]; class 51-100, levosimendan 1 mg/kg/day) of the same molecule?
Its value is 0%.

What about the “Incidence of T2 changes, class >200” value ([3]; class >200, levosimendan 1 mg/kg/day) of the same molecule?
Its value is 0%.

What about the “stroke-associated behavioural deficits observed in FOB testing” value [4] of the same molecule?
The value was “markedly reduce and postpone”.

And the “incidence and volume of brain lesions, behavioural disorders and mortality associated with stroke” value [5]?
The value was “reduces and/or postpones; also recorded: markedly reduce”.
